Earlier results in US8636973B2, “Method of producing pharmacologically pure crystals” (Biosyn Arzneimittel GmbH, priority 2010, dated 2014).

Legend:
[1] = 14° C.
[2] = Janitzki, solubility studies

SMILES	solubility [1]	temperature at which the form is stable / exists [2]
O=[Se]=O [SeO2, selenium dioxide]	0.384 kg/l H2O	–
O.O.O.O.O.O.O.O.O=[Se]([O-])[O-].[Na+].[Na+] [Na2SeO3×8 H2O, Na2SeO3×8H2O]	–	up to −8.7 °C
